Assay results published in ChEMBL document CHEMBL1135700, “Design, synthesis and activity of ascorbic acid prodrugs of nipecotic, kynurenic and diclophenamic acids, liable to increase neurotropic activity” (2002).

System: Mus musculus
Experiment: Compound administered at a concentration of 0.75 mmol/kg intraperitoneally was evaluated for its effect on pentylenetetrazole induced convulsions in mice, measured as latency to convulsion

SMILES: C1CCc2nnnn2CC1.O=C1O[C@H]([C@@H](O)COC(=O)C2CCCNC2)C(O)=C1O (stereo partly specified)
- Latency: 922 s
